Test system: HIV-1 infected PBMCs
Experiment: p24 antigen production by HIV-1 infected PBMCs
Type: cell-based
Conditions: identical culture conditions, various doses
Description: The efficacy of magnetic nanoparticle-AZTTP was evaluated in an in vitro model system using HIV infected peripheral blood mononuclear cells (PBMCs). […] Therefore, binding of AZTTP to magnetic nanoparticles have no effect on its biological activity.

Structure (SMILES): Cc1cn([C@H]2C[C@H](N=[N+]=[N-])[C@@H](COP(=O)(O)OP(=O)(O)OP(=O)(O)O)O2)c(=O)[nH]c1=O [free AZTTP, 3′-Azido-3′-Deoxythymidine-5′-triphosphate]
- anti-HIV activity of free AZTTP (positive control) and MP-AZTTP compared: similar

— US20110213193A1, “Magnetic Nanodelivery of Therapeutic Agents Across the Blood Brain Barrier” (THE FLORIDA INTERNATIONAL UNIVERSITY BOARD OF TRUSTEES, priority 2008, published 2011)
